Assay results as given in ChEMBL document CHEMBL1201862, “PubChem BioAssay data set” (2004).
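Exposure lasted 48 hours, with cells grown in 96-well plates and compounds tested at five concentrations. At the GI50, growth is halved.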 Activity calls are given as the source filed them. No stated cut-off is given here; in the data, active = GI50 up to about 1.1 µM and inactive = higher.

What was measured:
Assay in all cases: NCI tumour cell line growth inhibition, 48 h
LOX IMVI = test system: LOX IMVI
SF-539 = test system: SF-539
COLO 205 = test system: COLO 205
HT-29 = test system: HT-29
NCI-H522 = test system: NCI-H522
OVCAR-4 = test system: OVCAR-4
M14 = test system: M14
DU-145 = test system: DU-145
ACHN = test system: ACHN
SF-295 = test system: SF-295
UACC-62 = test system: UACC-62
UO-31 = test system: UO-31
MDA-N = test system: MDA-N
SNB-75 = test system: SNB-75
MDA-MB-231 = test system: MDA-MB-231
OVCAR-3 = test system: OVCAR-3
MOLT-4 = test system: MOLT-4
CAKI-1 = test system: CAKI-1
Malme-3M = test system: Malme-3M
MDA-MB-435 = test system: MDA-MB-435
NCI-H226 = test system: NCI-H226
IGROV-1 = test system: IGROV-1
NCI-H23 = test system: NCI-H23
EKVX = test system: EKVX
HCT-116 = test system: HCT-116
SK-MEL-2 = test system: SK-MEL-2
TK-10 = test system: TK-10
T47D = test system: T47D
BT-549 = test system: BT-549
KM12 = test system: KM12
NCI-H460 = test system: NCI-H460
MCF7 = test system: MCF7
UACC-257 = test system: UACC-257
SN12C = test system: SN12C
SK-OV-3 = test system: SK-OV-3
A549 = test system: A549
OVCAR-5 = test system: OVCAR-5
SK-MEL-5 = test system: SK-MEL-5
RXF 393 = test system: RXF 393
786-0 = test system: 786-0
SK-MEL-28 = test system: SK-MEL-28
HCC 2998 = test system: HCC 2998
SW-620 = test system: SW-620
OVCAR-8 = test system: OVCAR-8
HCT-15 = test system: HCT-15
CCRF-CEM = test system: CCRF-CEM
SR = test system: SR
PC-3 = test system: PC-3
U-251 = test system: U-251
K562 = test system: K562
NCI/ADR-RES = test system: NCI/ADR-RES
HOP-92 = test system: HOP-92
SNB-19 = test system: SNB-19
HL-60 = test system: HL-60
SF-268 = test system: SF-268
HOP-62 = test system: HOP-62
Hs-578T = test system: Hs-578T
A498 = test system: A498
RPMI-8226 = test system: RPMI-8226

For `COC(=O)C1=C(C(=O)OC)C(Cc2ccccc2)(OO)OC1=O` (stereo not given), the GI50 (LOX IMVI) was 3.59 µM (inactive), the GI50 (SF-539) was 3.15 µM (inactive) and the GI50 (COLO 205) was 7.19 µM (inactive). For the same compound, the GI50 (HT-29) was 3.17 µM (inactive), the GI50 (NCI-H522) was 2.32 µM (inactive) and the GI50 (OVCAR-4) was 16 µM (inactive). For the same compound, the GI50 (M14) was 3.8 µM (inactive), the GI50 (DU-145) was 23 µM (inactive) and the GI50 (ACHN) was 2.99 µM (inactive). The GI50 (SF-295) was 29.5 µM (inactive), the GI50 (UACC-62) was 3.52 µM (inactive) and the GI50 (UO-31) was 5.18 µM (inactive). For the same compound, the GI50 (MDA-N) was 4.03 µM (inactive), the GI50 (SNB-75) was 9.33 µM (inactive) and the GI50 (MDA-MB-231) was 28.2 µM (inactive). The GI50 (OVCAR-3) was 4.33 µM (inactive), the GI50 (MOLT-4) was 3.64 µM (inactive) and the GI50 (CAKI-1) was 4.82 µM (inactive). The GI50 (Malme-3M) was 6.22 µM (inactive), the GI50 (MDA-MB-435) was 3.52 µM (inactive) and the GI50 (NCI-H226) was 5.46 µM (inactive). For the same compound, the GI50 (IGROV-1) was 4.65 µM (inactive), the GI50 (NCI-H23) was 12.7 µM (inactive) and the GI50 (EKVX) was 11.3 µM (inactive). The GI50 (HCT-116) was 3.35 µM (inactive), the GI50 (SK-MEL-2) was 5.65 µM (inactive) and the GI50 (TK-10) was 3.4 µM (inactive). For the same compound, the GI50 (T47D) was 9.98 µM (inactive), the GI50 (BT-549) was 6.32 µM (inactive) and the GI50 (KM12) was 19.1 µM (inactive). For the same compound, the GI50 (NCI-H460) was 36.2 µM (inactive), the GI50 (MCF7) was 3.78 µM (inactive) and the GI50 (UACC-257) was 4.38 µM (inactive). The GI50 (SN12C) was 4.22 µM (inactive), the GI50 (SK-OV-3) was 29 µM (inactive) and the GI50 (A549) was 27.4 µM (inactive). For the same compound, the GI50 (OVCAR-5) was 18.8 µM (inactive), the GI50 (SK-MEL-5) was 4.26 µM (inactive) and the GI50 (RXF 393) was 4.94 µM (inactive). The GI50 (786-0) was 2.95 µM (inactive), the GI50 (SK-MEL-28) was 7.76 µM (inactive) and the GI50 (HCC 2998) was 60.1 µM (inactive). For the same compound, the GI50 (SW-620) was 2.83 µM (inactive), the GI50 (OVCAR-8) was 18.4 µM (inactive) and the GI50 (HCT-15) was 3.21 µM. For the same compound, the GI50 (CCRF-CEM) was 1.04 µM (active), the GI50 (SR) was 3.52 µM (inactive) and the GI50 (PC-3) was 13.1 µM (inactive). For the same compound, the GI50 (U-251) was 12.8 µM (inactive), the GI50 (K562) was 2.7 µM (inactive) and the GI50 (NCI/ADR-RES) was 7.82 µM (inactive). The GI50 (HOP-92) was 5.94 µM (inactive), the GI50 (SNB-19) was 22 µM (inactive) and the GI50 (HL-60) was 0.964 µM (active).

In the case of `CCOC(=O)CC(c1ccccc1)C(C)(C(=O)OCC)C(=O)OCC` (stereo not given), the GI50 (LOX IMVI) is reported as > 100 µM (inactive), the GI50 (SF-539) is reported as > 100 µM (inactive) and the GI50 (COLO 205) is reported as > 100 µM (inactive). For the same compound, the GI50 (HT-29) was > 100 µM (inactive), the GI50 (NCI-H522) was > 100 µM (inactive) and the GI50 (OVCAR-4) was > 100 µM (inactive). The GI50 (M14) was > 100 µM (inactive), the GI50 (DU-145) was > 100 µM (inactive) and the GI50 (ACHN) was > 100 µM (inactive). The GI50 (SF-268) was > 100 µM (inactive), the GI50 (SF-295) was > 100 µM (inactive) and the GI50 (UACC-62) was > 100 µM (inactive). For the same compound, the GI50 (UO-31) was 33.3 µM (inactive), the GI50 (MDA-N) was > 10 µM (inactive) and the GI50 (SNB-75) was 87.3 µM (inactive). The GI50 (MDA-MB-231) was > 100 µM (inactive), the GI50 (HOP-62) was > 100 µM (inactive) and the GI50 (MOLT-4) was 76.9 µM (inactive). For the same compound, the GI50 (CAKI-1) was > 100 µM (inactive), the GI50 (Malme-3M) was > 100 µM (inactive) and the GI50 (NCI-H226) was > 100 µM (inactive). For the same compound, the GI50 (IGROV-1) was > 100 µM (inactive), the GI50 (NCI-H23) was > 100 µM (inactive) and the GI50 (EKVX) was > 100 µM (inactive). The GI50 (HCT-116) was > 100 µM (inactive), the GI50 (SK-MEL-2) was > 100 µM (inactive) and the GI50 (Hs-578T) was > 100 µM (inactive). The GI50 (TK-10) was > 100 µM (inactive), the GI50 (T47D) was 78.2 µM (inactive) and the GI50 (BT-549) was 70.1 µM (inactive). The GI50 (KM12) was > 100 µM (inactive), the GI50 (NCI-H460) was > 100 µM (inactive) and the GI50 (MCF7) was > 100 µM (inactive). For the same compound, the GI50 (UACC-257) was > 100 µM (inactive), the GI50 (SN12C) was > 100 µM (inactive) and the GI50 (SK-OV-3) was > 100 µM (inactive). For the same compound, the GI50 (A549) was > 100 µM (inactive), the GI50 (OVCAR-5) was > 100 µM (inactive) and the GI50 (SK-MEL-5) was > 100 µM (inactive). For the same compound, the GI50 (RXF 393) was 3.23 µM (inactive), the GI50 (786-0) was > 100 µM (inactive) and the GI50 (SK-MEL-28) was > 100 µM (inactive). The GI50 (HCC 2998) was > 100 µM (inactive), the GI50 (SW-620) was > 100 µM (inactive) and the GI50 (OVCAR-8) was > 100 µM (inactive). The GI50 (HCT-15) was greater than 100 µM, the GI50 (CCRF-CEM) was > 100 µM (inactive) and the GI50 (SR) was 61.2 µM (inactive). The GI50 (PC-3) was 77.6 µM (inactive), the GI50 (U-251) was > 100 µM (inactive) and the GI50 (K562) was > 100 µM (inactive). For the same compound, the GI50 (NCI/ADR-RES) was > 100 µM (inactive), the GI50 (SNB-19) was > 100 µM (inactive) and the GI50 (HL-60) was > 100 µM (inactive).

In the case of `COC(=O)c1ccccc1/C=C1\Cc2c(C)cc(C)cc2C1=O`, the GI50 (LOX IMVI) is reported as > 100 µM (inactive), the GI50 (SF-539) is reported as > 100 µM (inactive) and the GI50 (A498) is reported as > 100 µM (inactive). The GI50 (HT-29) was > 100 µM (inactive), the GI50 (NCI-H522) was > 100 µM (inactive) and the GI50 (OVCAR-4) was > 100 µM (inactive). The GI50 (M14) was > 100 µM (inactive), the GI50 (ACHN) was > 100 µM (inactive) and the GI50 (SF-268) was > 100 µM (inactive). For the same compound, the GI50 (SF-295) was > 100 µM (inactive), the GI50 (UACC-62) was > 100 µM (inactive) and the GI50 (UO-31) was > 100 µM (inactive). For the same compound, the GI50 (MDA-N) was > 100 µM (inactive), the GI50 (SNB-75) was > 100 µM (inactive) and the GI50 (MDA-MB-231) was > 100 µM (inactive). For the same compound, the GI50 (HOP-62) was > 100 µM (inactive), the GI50 (OVCAR-3) was > 100 µM (inactive) and the GI50 (MOLT-4) was > 100 µM (inactive). For the same compound, the GI50 (CAKI-1) was > 100 µM (inactive), the GI50 (Malme-3M) was > 100 µM (inactive) and the GI50 (NCI-H226) was > 100 µM (inactive). For the same compound, the GI50 (IGROV-1) was > 100 µM (inactive), the GI50 (EKVX) was > 100 µM (inactive) and the GI50 (HCT-116) was > 100 µM (inactive). For the same compound, the GI50 (SK-MEL-2) was > 100 µM (inactive), the GI50 (Hs-578T) was > 100 µM (inactive) and the GI50 (TK-10) was > 100 µM (inactive). For the same compound, the GI50 (T47D) was > 100 µM (inactive), the GI50 (BT-549) was > 100 µM (inactive) and the GI50 (KM12) was > 100 µM (inactive). For the same compound, the GI50 (NCI-H460) was > 100 µM (inactive), the GI50 (MCF7) was > 100 µM (inactive) and the GI50 (UACC-257) was > 100 µM (inactive). The GI50 (SN12C) was > 100 µM (inactive), the GI50 (A549) was > 100 µM (inactive) and the GI50 (SK-MEL-5) was > 100 µM (inactive). The GI50 (RXF 393) was > 100 µM (inactive), the GI50 (786-0) was > 100 µM (inactive) and the GI50 (SK-MEL-28) was > 100 µM (inactive). For the same compound, the GI50 (HCC 2998) was > 100 µM (inactive), the GI50 (SW-620) was > 100 µM (inactive) and the GI50 (OVCAR-8) was > 100 µM (inactive). For the same compound, the GI50 (HCT-15) was greater than 100 µM, the GI50 (CCRF-CEM) was > 100 µM (inactive) and the GI50 (SR) was > 100 µM (inactive). For the same compound, the GI50 (PC-3) was > 100 µM (inactive), the GI50 (RPMI-8226) was > 100 µM (inactive) and the GI50 (U-251) was > 100 µM (inactive). The GI50 (K562) was > 100 µM (inactive), the GI50 (HOP-92) was > 100 µM (inactive) and the GI50 (SNB-19) was > 100 µM (inactive). The GI50 (HL-60) was > 100 µM (inactive).
